Measured values taken from ChEMBL document CHEMBL1136572, “Piperazine-based CCR5 antagonists as HIV-1 inhibitors. III: synthesis, antiviral and pharmacokinetic profiles of symmetrical heteroaryl carboxamides” (Bioorg Med Chem Lett, 2003).

Columns and labels:
[1] = tested on: U-87 MG; assay: Tested for inhibiting HIV (ADA) entry into cells; format: functional, cell-based, U-87MG ATCC; details: Homo sapiens
[2] = molecular target: T1, Muscarinic acetylcholine receptor M2 (Homo sapiens, UniProt P08172); assay: Binding affinity towards muscarinic receptor M2
T1 sequence (P08172 whole entry): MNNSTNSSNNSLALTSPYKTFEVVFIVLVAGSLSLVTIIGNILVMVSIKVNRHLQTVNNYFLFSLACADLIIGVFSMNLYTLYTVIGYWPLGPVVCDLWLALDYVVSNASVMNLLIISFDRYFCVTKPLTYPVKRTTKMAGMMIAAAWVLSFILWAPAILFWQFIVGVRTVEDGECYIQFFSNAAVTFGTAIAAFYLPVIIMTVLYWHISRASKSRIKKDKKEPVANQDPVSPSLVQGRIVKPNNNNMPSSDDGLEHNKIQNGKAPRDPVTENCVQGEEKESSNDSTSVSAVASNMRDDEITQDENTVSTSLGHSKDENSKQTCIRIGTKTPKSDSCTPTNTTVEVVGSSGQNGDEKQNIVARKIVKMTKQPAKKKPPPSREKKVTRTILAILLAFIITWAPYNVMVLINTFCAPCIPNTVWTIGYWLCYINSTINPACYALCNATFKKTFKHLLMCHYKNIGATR

[3] = molecular target: C-C chemokine receptor type 5 (Homo sapiens, UniProt P51681); assay: Ability to inhibit [125I]-labeled RANTES binding to the CCR5 receptor expressed in membrane preparations from CHO cells; format: cell membranes
Sequence of C-C chemokine receptor type 5 (P51681 whole entry): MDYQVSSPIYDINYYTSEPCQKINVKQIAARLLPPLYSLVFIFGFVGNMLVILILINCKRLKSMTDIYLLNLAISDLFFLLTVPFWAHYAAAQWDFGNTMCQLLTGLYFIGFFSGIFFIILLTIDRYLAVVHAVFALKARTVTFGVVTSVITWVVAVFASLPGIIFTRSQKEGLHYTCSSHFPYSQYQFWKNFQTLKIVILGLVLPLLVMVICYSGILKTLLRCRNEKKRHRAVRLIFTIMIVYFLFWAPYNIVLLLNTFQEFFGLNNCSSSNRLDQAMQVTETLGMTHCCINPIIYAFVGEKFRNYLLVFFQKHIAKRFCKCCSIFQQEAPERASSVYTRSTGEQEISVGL

[4] = Compound was tested for inhibition of HIV isolate ASM 108 (hz) in peripheral blood mononuclear cells (PBMC); format: functional
[5] = Oral bioavailability evaluated in monkey; format: ADME, organism-based; details: cercopithecidae, in vivo
[6] = Compound was tested for inhibition of HIV isolate BCF01 in peripheral blood mononuclear cells (PBMC); format: functional
[7] = Compound was tested for inhibition of HIV isolate US-1 in peripheral blood mononuclear cells (PBMC); format: functional
[8] = Cmax value evaluated in monkey; format: ADME, organism-based; details: cercopithecidae, in vivo
[9] = Compound was tested for inhibition of HIV isolate 301657 (hz) in peripheral blood mononuclear cells (PBMC); format: functional
[10] = Compound was tested for inhibition of HIV isolate JV 1083 in peripheral blood mononuclear cells (PBMC); format: functional
[11] = Oral bioavailability evaluated in rat; format: ADME, organism-based; details: in vivo
[12] = Compound was tested for inhibition of HIV isolate YU-2 (hz) in peripheral blood mononuclear cells (PBMC); format: functional
[13] = molecular target: T1, Muscarinic acetylcholine receptor M2; assay: Inhibition of binding affinity to muscarinic receptor M2
[14] = Compound was tested for inhibition of HIV isolate 301657 (wt) in peripheral blood mononuclear cells (PBMC); format: functional
[15] = Cmax value evaluated in rat; format: ADME, organism-based; details: in vivo
[16] = Compound was tested for inhibition of HIV isolate YU-2 (wt) in peripheral blood mononuclear cells (PBMC); format: functional
[17] = Compound was tested for inhibition of HIV isolate bal (hz) in peripheral blood mononuclear cells (PBMC); format: functional
[18] = Ratio of AUCbrain to AUCplasma; format: ADME, organism-based; details: rat, brain and plasma
[19] = Compound was tested for inhibition of HIV isolate ASM 108 (wt) in peripheral blood mononuclear cells (PBMC); format: functional
[20] = tested on: U-87 MG; assay: Compound was tested for inhibiting HIV (ADA) entry into cells; Range is 0.2-2.0 nM; format: functional, cell-based, U-87MG ATCC; details: Homo sapiens
[21] = tested on: BaF3; assay: Inhibition of 0.1 nM of MIP-1beta induced migration of recombinant mouse pro-B cell line BA/F3 expressing human CCR5; format: functional, cell-based
[22] = tested on: U-87 MG; assay: Compound was tested for inhibiting HIV (ADA) entry into U-87 cells; range is 2-20 nM; format: functional, cell-based, U-87MG ATCC; details: Homo sapiens
[23] = tested on: Rattus norvegicus; assay: Dose required for observing cardiovascular effects in rats after peroral administration; format: functional, Heart
[24] = molecular target: T2, Muscarinic acetylcholine receptor M1 (Homo sapiens, UniProt P11229); assay: Binding affinity towards muscarinic receptor M1
T2 sequence (P11229 whole entry): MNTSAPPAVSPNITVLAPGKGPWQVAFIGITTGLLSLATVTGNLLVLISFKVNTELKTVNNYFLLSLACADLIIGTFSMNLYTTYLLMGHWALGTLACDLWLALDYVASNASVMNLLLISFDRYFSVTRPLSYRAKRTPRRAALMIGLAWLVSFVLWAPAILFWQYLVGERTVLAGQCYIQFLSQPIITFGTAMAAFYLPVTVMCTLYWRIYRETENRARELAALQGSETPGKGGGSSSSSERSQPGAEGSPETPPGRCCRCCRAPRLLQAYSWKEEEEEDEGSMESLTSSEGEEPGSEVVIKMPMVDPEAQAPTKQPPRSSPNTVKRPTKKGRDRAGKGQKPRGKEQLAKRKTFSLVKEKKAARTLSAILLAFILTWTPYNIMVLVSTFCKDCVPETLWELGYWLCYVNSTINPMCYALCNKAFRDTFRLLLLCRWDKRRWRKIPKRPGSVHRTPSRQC

[25] = tested on: Rattus norvegicus; assay: Dose required for observing CNS and GI effects in rats after peroral administration; format: functional

Work on Cc1nc(C(F)(F)F)nc(C)c1C(=O)N1CCC(C)(N2CCN([C@@H](C)c3ccc(C(F)(F)F)cc3)[C@@H](C)C2)CC1 yielded an IC50 [1] of 0.1 nM, a Ki [2] of 613 nM and a Ki [3] of 10 nM.
Cc1nc(N)nc(C)c1C(=O)N1CCC(C)(N2CCN([C@@H](C)c3ccc(C(F)(F)F)cc3)[C@@H](C)C2)CC1 gave a Ki [2] of 1100 nM and a Ki [3] of 38 nM.
For Cc1ncnc(C)c1C(=O)N1CCC(C)(N2CCN([C@@H](C)c3ccc(C(F)(F)F)cc3)[C@@H](C)C2)CC1, the IC50 [4] was 0.2 nM, the IC90 ([4]; Human immunodeficiency virus 1) was 3 nM and the bioavailability [5] was 50%. It also gave an IC50 [6] of 200 nM, an IC90 ([6]; Human immunodeficiency virus 1) greater than 1000 nM and an IC50 [7] of 0.7 nM. It also gave an IC90 ([7]; Human immunodeficiency virus 1) of 4 nM, a Cmax [8] of 340 ng/mL and an IC50 [9] of 26.8 nM. It also gave an IC90 ([9]; Human immunodeficiency virus 1) greater than 1000 nM, an IC50 [10] of 166 nM and an IC90 ([10]; Human immunodeficiency virus 1) greater than 300 nM. It also gave a bioavailability [11] of 97%, an IC50 [12] of 1.3 nM and an IC90 ([12]; Human immunodeficiency virus 1) of 100 nM. The Ki [13] was 456 nM, the IC50 [14] was 3.2 nM and the IC90 ([14]; Human immunodeficiency virus 1) was 24 nM. For the same compound, the Cmax [15] was 1490 ng/mL, the IC50 [1] was 0.5 nM and the Ki [2] was 456 nM. For the same compound, the IC50 [16] was 2.3 nM, the IC90 ([16]; Human immunodeficiency virus 1) was 8 nM and the IC50 [17] was 6.4 nM. It also gave an IC90 ([17]; Human immunodeficiency virus 1) of 60 nM, a Kp [18] of 1.7 and an IC50 [19] of 7 nM. The IC90 ([19]; Human immunodeficiency virus 1) was 17 nM.
Compound Cc1nc(C)c(C(=O)N2CCC(C)(N3CCN([C@@H](C)c4ccc(C(F)(F)F)cc4)[C@@H](C)C3)CC2)c(C)n1 has an IC50 [1] of 1.45 nM, a Ki [2] of 985 nM and a Ki [3] of 10 nM.
C[C@H]1CN(C2(C)CCN(C(=O)c3c(Cl)cncc3Cl)CC2)CCN1[C@@H](C)c1ccc(C(F)(F)F)cc1 showed an IC50 [1] of 0.3 nM, a Ki [2] of 2030 nM and a Ki [3] of 0.7 nM.
Cc1ncnc(C)c1C(=O)N1CCC(C)(N2CCN([C@@H](C)c3ccc(OC(F)(F)F)cc3)[C@@H](C)C2)CC1 showed an IC50 [1] of 1.2 nM, a Ki [2] of 68 nM and a Ki [3] of 11 nM.
With Cc1ncnc(C)c1C(=O)N1CCC(C)(N2CCN([C@@H](C)c3ccc(I)cc3)[C@@H](C)C2)CC1 the Ki [2] was 169 nM and the Ki [3] was 11 nM.
With Cc1ccnc(C)c1C(=O)N1CCC(C)(N2CCN([C@@H](C)c3ccc(C(F)(F)F)cc3)[C@@H](C)C2)CC1 the IC50 [20] was 0.2 nM, the IC50 [21] was 0.03 nM and the Ki [3] was 2 nM.
With Cc1c[n+]([O-])cc(C)c1C(=O)N1CCC(C)(N2CCN([C@@H](C)c3ccc(C(F)(F)F)cc3)[C@@H](C)C2)CC1 the IC50 [1] was 0.9 nM, the Ki [2] was 255 nM and the Ki [3] was 18 nM.
Cc1cc[n+]([O-])c(C)c1C(=O)N1CCC(C)(N2CCN([C@@H](C)c3ccc(C(F)(F)F)cc3)[C@@H](C)C2)CC1 showed an IC50 [22] of 2 nM, a Dose [23] of 10 mg/kg and a Ki [24] of 350 nM. For the same compound, the IC50 [21] was 0.1 nM and the Dose [25] was 30 mg/kg.
For Cc1cncc(C)c1C(=O)N1CCC(C)(N2CCN([C@@H](C)c3ccc(C(F)(F)F)cc3)[C@@H](C)C2)CC1, the Ki [2] was 1680 nM and the Ki [3] was 5.23 nM.
With Cc1nc(-c2ccccc2)nc(C)c1C(=O)N1CCC(C)(N2CCN([C@@H](C)c3ccc(C(F)(F)F)cc3)[C@@H](C)C2)CC1 the IC50 [1] was 1.8 nM, the Ki [2] was 1230 nM and the Ki [3] was 12 nM.
In the case of C[C@H]1CN(C2(C)CCN(C(=O)c3c(Cl)c[n+]([O-])cc3Cl)CC2)CCN1[C@@H](C)c1ccc(C(F)(F)F)cc1, the IC50 [1] is reported as 0.45 nM, the Ki [2] is reported as 348 nM and the Ki [3] is reported as 2.7 nM.
Compound Cc1ncnc(C)c1C(=O)N1CCC(C)(N2CCN([C@@H](C)c3ccc(C#N)cc3)[C@@H](C)C2)CC1 has an IC50 [1] of 1.8 nM, a Ki [2] of 164 nM and a Ki [3] of 20 nM.
COc1nc(C)c(C(=O)N2CCC(C)(N3CCN([C@@H](C)c4ccc(C(F)(F)F)cc4)[C@@H](C)C3)CC2)c(C)n1 gave a Ki [2] of 202 nM and a Ki [3] of 11 nM.
